The text below walks through data of publication PMC12238850, “Molecular determinants for recognition of serotonylated chromatin” (Nucleic Acids Research, 2025).

Experiment [1] concerns the target 13C- and 15N-labelled Taf3-PHD finger (residues 857-924), GST removed by thrombin (Mus musculus) (UniProt Q5HZG4). Put plainly: NMR titration; 0.19 mM 13C,15N-labelled Taf3-PHD, peptide added (30% to 3.6 equiv.); 298 K; 20 mM KPi pH 7.0, 150 mM KCl, 10 μM ZnCl2; koff from TITAN line-shape fits (0%, 50%, 150% peptide), 1:1 model.
The target of experiment [2] is Taf3-PHD P881E–W894F used for NMR titrations (Mus musculus) (UniProt Q5HZG4). Described as above.
The target in the next experiment is TAF3-PHD. The following applies: read-out: expected dissociation constant (KD); cited from earlier work. Here is the method: An important link between H3K4me3 and pol II is formed by the basal transcription factor TFIID [[32], [35–37]]. TFIID is able to engage with active promoters by DNA contacts as well as by two histone-binding domains: the double bromodomains of TAF1 engaging acylated histones and the TAF3-PHD finger binding H3K4me3 [[32], [35–37]]. […] Binding of ... || All data were recorded at 298 K on a Bruker Avance III HD 900 MHz spectrometer equipped with a cryoprobe, unless noted otherwise. Sample for assignment verification contained 0.3 mM ^13C- and ^15N-labelled PHD finger of Taf3 (residues 857–924) in NMR buffer (20 mM KPi, pH 7.0, 150 mM KCl, 10 μM ZnCl2, 0.01% NaN3, 10% D2O) in a 5-mm NMR tube. Samples for peptide interaction studies contained 0.19 mM ^13C- and ^15N-labelled PHD in NMR buffer in 3-mm NMR tubes. Lyophilized peptides were dissolved in NMR buffer including 1 mM sodium 3-(trimethylsilyl)tetradeuteriopropanionate (TSP) into 20 mM stoc ... || Overall, we propose that serotonin recognition is governed by edge–face CH–π interactions with either aromatic residues or prolines. Consistent with our proposal, CHD1 contains aromatic residues at positions Y295 and Y406, either of which could orient to engage with H3Q5ser explaining the preference of CHD1 for serotonin (Supplementary Fig. S15C). […]

Experiment [3] has as its target T1, Taf3-PHD (residues 857–924) (Mus musculus, UniProt Q5HZG4).
T1 construct: PHD finger of Taf3 (residues 857–924) in NMR buffer; GST (N, cleaved yes); made in house; host or cells: E. coli BL21(DE3), M9 minimal medium (13C/15N)
T1 sequence (Q5HZG4 857-924): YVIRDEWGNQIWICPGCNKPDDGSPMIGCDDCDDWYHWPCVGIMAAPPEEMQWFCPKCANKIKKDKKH
Put plainly: NMR titration line shape analysis (TITAN), wild-type Taf3-PHD. The class given is binding. Here is the method:
The ^13C- and ^15N-labelled Taf3-PHD NMR samples were purified as described above, with minor differences. A single colony of freshly transformed BL21(DE3) E. coli was grown in a synthetic M9 minimal medium (6.0 g/l Na2HPO4·2H2O, 3.0 g/l KH2PO4, 0.5 g/l NaCl, 25 mg/l MgSO4, 290 μg/l CaCl2, 1 μg/l FeSO4·7H2O, 270 μg/l ZnCl2, and 5 mg/l thiamine) containing 2.0 g/l ^13C-glucose as the only carbon source and 0.5 g/l ^15NH4Cl as the sole nitrogen source. Protein expression, lysis, and loading to Glutathione Sepharose™ column were performed as described above. The GST-tag was removed through on-column thrombin digestion by loading excess thrombin (SERVA) in wash buffer followed by overnight digestion at 4°C. The cleaved PHD moiety with a […] N-terminal extension (Gly–Ser–His–Met–Ala–Met–Ala) remaining from the thrombin cleavage site was collected from the flow-through and further purified in a Mono Q™ 10/100 GL as before and subsequently loaded to a Superdex-75 HiLoad 16/600 gel filtration column in NMR buffer (20 mM KPi, pH 7.0, 150 mM KCl, 10 μM ZnCl2) (Supplementary Fig. S1).
All data were recorded at 298 K on a Bruker Avance III HD 900 MHz spectrometer equipped with a cryoprobe, unless noted otherwise. Sample for assignment verification contained 0.3 mM ^13C- and ^15N-labelled PHD finger of Taf3 (residues 857–924) in NMR buffer (20 mM KPi, pH 7.0, 150 mM KCl, 10 μM ZnCl2, 0.01% NaN3, 10% D2O) in a 5-mm NMR tube. Samples for peptide interaction studies contained 0.19 mM ^13C- and ^15N-labelled PHD in NMR buffer in 3-mm NMR tubes. Lyophilized peptides were dissolved in NMR buffer including 1 mM sodium 3-(trimethylsilyl)tetradeuteriopropanionate (TSP) into 20 mM stock solutions. Upon dilution to 1 mM, all peptide solutions were at pH 7.0 in NMR buffer. Peptide concentrations were determined by comparing the integral of the Thr methyl signal (from T3, T6, and T11, total nine protons) to that of TSP using a quantitative 1D experiment (recycle delay 60 s) recorded at a Bruker Avance III 600 MHz spectrometer. Saturated complexes with H3K4me1/H3K4me2/H3K4me3 peptides with and without H3Q5ser were made by adding peptide to a 0.7 mM final concentration (3.6 equiv.). […] Additional samples were prepared using 30%, 50%, 80%, and 160% equiv. of peptide. All spectra were recorded and processed using Bruker Topspin and analysed using NMR-FAM Sparky and Poky.
For the H3K4me2 complexes, the resonance of G879 was excluded due to overlap and that of K875 was included. Spectra were processed using NMRPipe using exponential line broadening of 10/15 Hz in the direct/indirect dimension of the free induction decay before Fourier transform. Data were fit against a 1:1 binding model that also optimizes the ligand concentration to compensate for concentration errors. Fitting assumed an HSQC experiment using 1.2 ms for the first zz-filter delays and an additional 0.6 ms evolution at the start and end of t1 that accommodated the echo/anti-echo gradient. The average koff value and standard error from a bootstrap analysis based on 100 replicas are reported. The 95% confidence limits were estimated using a grid search fixing koff allowing for an ∼3% increase in the final residuals as based on the F-statistic given the degrees of freedom. For each koff value, the KD for the H3K4me3 peptide was restrained to fall within 100 and 400 nM to enforce compatibility to previous reported affinity to avoid unrealistically high fitted KD values at higher koff values. Of note, the quality of the fit at the confidence limit edges is visibly worse than the best fit, particularly for the high koff side. For the H3K4me3Q5ser peptide, no restraint on KD was necessary. For the H3K4me2 peptides, the KD was restrained to 5 μM maximum. Without these upper bounds for KD, slightly wider confidence limits for koff are found.

A further experiment relates to TFIID. Kind of experiment: Histone peptide pull-down qMS, HeLa nuclear extract. The conditions noted are these: biotinylated H3 (1–13) peptides, overnight at 4°C, 300 mM NaCl, pH 7.9, qMS, FDR 0.1. The class given is binding, HeLa cells. Here is the method:
(§1) Nuclear extracts of HeLa cells were prepared using a modified version of the Dignam procedure. Cytosolic and nuclear separation was validated by immunoblot using the following antibodies: for TBP the 20C7 in house mouse monoclonal and for Tubulin the DM1A monoclonal from Calbiochem (CP06) (Supplementary Fig. S5A). Biotinylated H3 (1–13) peptides immobilized on Dynabeads™ M-280 Streptavidin (Invitrogen) were incubated on a rotating wheel with 1 mg of HeLa nuclear extract overnight at 4°C in binding buffer [20 mM HEPES–KOH, pH 7.9, 300 mM NaCl, 20% glycerol, 2 mM MgCl2, 0.2 mM ethylenediaminetetraacetic acid, 0.1% NP-40, 0.5 mM DTT, and 1× cOmplete™ Protease Inhibitor Cocktail (Roche)]. The beads were then washed two times with binding buffer containing 0.5% NP-40, two times with phosphate buffered saline (PBS) containing 0.5% NP-40, and two times with plain PBS. On-bead digestion of bound proteins was performed overnight at 22°C with 0.1 μg/ml of trypsin in elution buffer (100 mM Tris–HCl, pH 7.5, 2 M urea, 10 mM DTT). […] A third of the final elution was analysed as described in [44, 45] with minor changes. For nanoflow-HPLC–MS/MS samples were analysed on an Orbitrap Fusion Lumos mass spectrometer coupled to an Easy nano-LC 1200 HPLC (Thermo Fisher Scientific). […]

Another experiment relates to BPTF. The experiment is described as above. The class given is binding, HeLa cells. The conditions noted are these: biotinylated H3 (1–13) peptides, FDR 0.1. Here is the method:
as §1

Experiment [4] has as its target T2, Taf3-PHD (Mus musculus Taf3 residues 857-924), 13C- and 15N-labelled, GST removed (Mus musculus, UniProt Q5HZG4 857-924, 13C- and 15N-labelled).
T2 construct: Taf3 PHD finger, Mus musculus, residues 857-924; numbering of mouse Taf3 isoform 1, UniProt Q5HZG4; also called Taf3-PHD finger; PHD domain; source: E. coli BL21(DE3) in M9 minimal medium, purified (Glutathione Sepharose, on-column thrombin, Mono Q, Superdex-75); not shown: GST, N-terminal, cleaved
T2 sequence: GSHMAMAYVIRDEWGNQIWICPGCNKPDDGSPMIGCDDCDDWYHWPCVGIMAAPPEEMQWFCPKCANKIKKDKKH
Put plainly: solution NMR structure; 0.88 mM 13C,15N Taf3-PHD with 0.88 mM H3K4me3Q5ser peptide; 20 mM KPi pH 7.0, 4 mM KCl, 10 uM ZnCl2; NOESY at 293 K; NOE distance restraints imposed with HADDOCK on the structure PDB 2K17. The conditions noted are these: both partners purified.

By koff is commonly meant a measure of how fast the partners let go of each other. For orientation: Kd means the equilibrium constant for the complex coming apart.

Where two headings read alike, the source gives them in different places.

“H3K4me3Q5ser histone H3 tail peptide (non-biotinylated)”: the results for the koff in experiment [1] and in experiment [2] were 16.8 s⁻¹ and 24.2 s⁻¹, respectively.

Consider “H3K4me2Q5ser histone H3 tail peptide (non-biotinylated)”, for which the koff in experiment [1] was found to be 71 s⁻¹.

“H3K4me2 histone H3 tail peptide (non-biotinylated)”: the koff in experiment [1] turned out to be 207 s⁻¹.

Take “H-ARTK(Me)QTARKSTG-NH2 [H3K4me1, H3 tail peptide monomethylated at lysine 4]”: the Kd at TAF3-PHD is over 200000 nM.

For `C[C@H](N)C(=O)N[C@@H](CCCNC(=N)N)C(=O)N[C@H](C(=O)N[C@@H](CCCCN(C)C)C(=O)N[C@@H](CCC(=O)NCCc1c[nH]c2ccc(O)cc12)C(=O)N[C@H](C(=O)N[C@@H](C)C(=O)N[C@@H](CCCNC(=N)N)C(=O)N[C@@H](CCCCN)C(=O)N[C@@H](CO)C(=O)N[C@H](C(=O)NCC(N)=O)[C@@H](C)O)[C@@H](C)O)[C@@H](C)O` [H3K4me2Q5ser], the koff in experiment [3] (pH 7) was 71 ± 2 s⁻¹; in experiment [3] (pH 7, read-out: koff 95% confidence limits) it was 56 to 90 s⁻¹. Moreover, in the experiment on TFIID, the “TFIID preference for H3Q5ser peptides” value was “TFIID enrichment was most pronounced”.

“H-ARTKQ(ser)TARKSTG-NH2 [H3Q5ser, H3 tail peptide, K4 unmethylated, serotonylated glutamine 5]”: the “BPTF preference for H3Q5ser peptides” value in the experiment on BPTF is recorded as “enhanced binding to H3Q5ser compared to the unmodified H3 peptide”.

Consider `C[C@H](N)C(=O)N[C@@H](CCCNC(=N)N)C(=O)N[C@H](C(=O)N[C@@H](CCCCN(C)C)C(=O)N[C@@H](CCC(N)=O)C(=O)N[C@H](C(=O)N[C@@H](C)C(=O)N[C@@H](CCCNC(=N)N)C(=O)N[C@@H](CCCCN)C(=O)N[C@@H](CO)C(=O)N[C@H](C(=O)NCC(N)=O)[C@@H](C)O)[C@@H](C)O)[C@@H](C)O` [H3K4me2], for which the koff in experiment [3] (NMR line shape fit (TITAN), 298 K, 20 mM KPi, pH 7.0, 150 mM KCl, 1:1 model, average ± standard error from bootstrap, 100 replicas, read-out: koff) was 207 ± 10 s⁻¹; in experiment [3] (NMR line shape fit (TITAN), 298 K, pH 7.0, grid search, read-out: koff 95% confidence limits), 160 to 250 s⁻¹. In addition, the Kd at TAF3-PHD was 1700 nM.

Take “H3K4me3 histone H3 tail peptide (non-biotinylated)”: the koff stood at 48.8 s⁻¹ in experiment [1] and 29.6 s⁻¹ in experiment [2].

B1: H3K4me3Q5ser peptide, non-biotinylated: H-ARTK(Me3)Q(ser)TARKSTG-NH2 (peptide)
peptide: H-ARTK(Me3)Q(serotonyl)TARKSTG-NH2
notes: histone H3 N-terminal tail, residues 1-12 of H3K4me3Q5ser; also called H3K4me3Q5ser ligand; H3 peptide; source: synthetic peptide
On to B1, for which the binding result in experiment [4] is recorded as “binds”.
